Laboratory results published in patent US20140323511A1, “CHEMOTHERAPEUTIC FOR INDUCING AN MSH2 DEPENDENT APOPTOTIC PATHWAY” (Wake Forest University Health Sciences, priority 2013, published 2014).

Legend:
[1] = system: HEC59 and HEC59+chr.2; experiment: Cell viability compared between the paired MSH2-deficient and MSH2-proficient endometrial cell lines; type: cell-based, human; settings: for change of IC50 when MSH2 is present: HEC59+chr.2 vs HEC59; for change in sensitivity to MSH2: comparison of isomers, MSH2 proficient vs deficient IC50; for cell killing: endometrial cell line deficient (HEC59) and proficient (HEC59+chr.2) for MSH2, data not shown; for difference between MSH2-proficiency and deficiency (MSH2-dependence of cell killing): HEC59 vs HEC59+chr.2
Description: (§1) HEC59 cells (msh2 deficient) and the paired cell line HEC59 chr. that restores the MSH2-deficiency via chromosome transfer have been extensively characterized (Umar et al., 1997). Cells were grown in standard growth media (DMEM-F12+10% FBS). Cells were plated in microtiter plates at an appropriate concentration in 100 μl media and incubated overnight. Media was replaced with media containing drug and allowed to incubate for 24 hours at indicated concentrations. Untreated cells received fresh media with vehicle only. One solution reagent (CellTiter 96)(r) Aqueous One Solution) was added to existing media (20 μl/well) and allowed to incubate 3-4 hrs. A plate reader was used to record the absorbance at 490 nm. Assays were performed at least in triplicates. Cell viability at each concentration was analyzed for IC50 values using GraphPad Prism 4™. Graphs represent mean values and standard deviations.
(§2) We next tested these new rescinnamine analogs in a well-defined cellular system with an endometrial cell line deficient (HEC59) and proficient (via chromosome transfer, HEC59+chr.2) for MSH2. […] No significant difference was detected when determining the IC50 values.

[2] = system: HEC59 cells (msh2 deficient); experiment: Cell viability assay (CellTiter 96 Aqueous One Solution), MSH2-deficient endometrial cells; type: cell-based; settings: Homo sapiens; HEC59, drug 24 hours; graphs not reaching 50% mortality were extrapolated; NA = data did not reach below 50%, no extrapolation possible; read-out: 50IC MSH2 deficient
Description: as §1, §2

[3] = system: HEC59+chr.2 (MSH2 proficient via chromosome transfer); experiment: Cell viability assay (CellTiter 96 Aqueous One Solution), MSH2-proficient endometrial cells; type: cell-based; settings: Homo sapiens; HEC59+chr.2, drug 24 hours; graphs not reaching 50% mortality were extrapolated; NA = data did not reach below 50%, no extrapolation possible; read-out: 50IC MSH2 proficient
Description: as §1, §2

[4] = system: MSH2; settings: previously shown (Vasilyeva 2009, 2010); cited from earlier work
[5] = system: ovarian cancer cells; experiment: Overcoming resistance to cisplatin in ovarian cancer cells; type: cell-based; settings: data not shown
[6] = system: SW416 or HEC59 cells; experiment: Xenograft model; type: in vivo, mice
Description: SW416 or HEC59 cells in PBS mixed with Matrigel (1:1; BD Biosciences) were subcutaneously injected into the flank of nude donor mice. Tumors were grown for up to 3 weeks. Mice were euthanized, tumors excised, minced into 3 mm pieces, and surgically implanted into the right flank of acceptor mice (10 per group). Isoflurane anesthesia was provided during tumor inoculation. Injection of compounds was started 3 days following tumor implantation to allow recovery from surgery. Compounds were given intraperitoneally, in a volume of 0.5 ml/mouse with a ¼ inch, 23-gauge needle in a 6 ml plastic syringe. Mice were monitored based on survival and body weight. Tumor size, measured by caliper, and body weight were monitored […] for 57 days, and the prolongation of median survival time after ip treatment determined. Any animals showing signs of distress, unnatural movements, severe loss of appetite, severe signs of hypotension, tumor size of […], or weight loss exceeding 10% before the end of the study were euthanized. Tumors were measured twice a week for each group. Tumor volume is calculated as length(mm)×width (mm)^2. Initial measurements were performed when the tumor reached 150-200 mg. Tumor weight (in mg) is calculated as tumor weight (mg)[…](length(mm) of tumor×width (mm) of tumor^2)/2.

SMILES | IC50 [2] | IC50 [3] | cell killing [1] | further results
COC(=O)[C@H]1[C@H]2C[C@@H]3c4[nH]c5cc(OC)ccc5c4CCN3C[C@H]2C[C@@H](OC(=O)/C=C/c2ccc(OC)c(N)c2)[C@@H]1OC [SA-I-029] | 77.2 µM | 113 µM |  | change of IC50 when MSH2 is present [1]: reduction in IC50 when MSH2 is present; change in sensitivity to MSH2 [1]: ~2 fold
CCC(=O)O[C@@H]1C[C@@H]2CN3CCc4c([nH]c5cc(OC)ccc45)[C@H]3C[C@@H]2[C@H](C(=O)OC)[C@H]1OC [SA-I-058, Propionoyl Reserpate] |  |  |  | melting point: 258 °C
COC(=O)[C@H]1[C@H]2C[C@@H]3c4[nH]c5cc(OC)ccc5c4CCN3C[C@H]2C[C@@H](OC(=O)c2cc(OC)c(OC)c(OC)c2)[C@@H]1OC [reserpine] |  |  |  | induction of MSH2-dependent cell death [4]: capable of inducing cell death in an MSH2-dependent manner
COC(=O)[C@H]1[C@H]2C[C@@H]3c4[nH]c5cc(OC)ccc5c4CCN3C[C@H]2C[C@@H](OC(=O)/C=C/c2ccc(OC)c(O)c2)[C@@H]1OC [SA-I-020] | 22.3 µM | 21.3 µM | induced cell killing in the micromolar range | 
COC(=O)[C@H]1[C@H]2C[C@@H]3c4[nH]c5cc(OC)ccc5c4CCN3C[C@H]2C[C@@H](OC(=O)/C=C/c2ccc(C(=O)O)c(OC)c2)[C@@H]1OC [SA-I-013] | 163 µM | 1220 µM |  | change of IC50 when MSH2 is present [1]: reduction in IC50 when MSH2 is present; change in sensitivity to MSH2 [1]: ~8 fold
COC(=O)c1cc(/C=C/C(=O)O[C@@H]2C[C@@H]3CN4CCc5c([nH]c6cc(OC)ccc56)[C@H]4C[C@@H]3[C@H](C(=O)OC)[C@H]2OC)ccc1OC [SA-I-012] | 50.7 µM | 48.9 µM |  | 
C=CC(=O)O[C@@H]1C[C@@H]2CN3CCc4c([nH]c5cc(OC)ccc45)[C@H]3C[C@@H]2[C@H](C(=O)OC)[C@H]1OC [SA-I-03, Acryloyl Reserpate] | 20.7 µM | 20.4 µM | induced cell killing in the micromolar range | melting point: > 260 °C
COC(=O)[C@H]1[C@H]2C[C@@H]3c4[nH]c5cc(OC)ccc5c4CCN3C[C@H]2C[C@@H](OC(=O)/C=C/c2ccc(OC)c(OC(C)=O)c2)[C@@H]1OC [SA-I-019] | 39.3 µM |  | induced cell killing in the micromolar range | 
COC(=O)[C@H]1[C@H]2C[C@@H]3c4[nH]c5cc(OC)ccc5c4CCN3C[C@H]2C[C@@H](OC(=O)/C=C/c2ccc(N)c(OC)c2)[C@@H]1OC [SA-I-039] | 85.7 µM | 68.4 µM | induced cell killing in the micromolar range | difference between MSH2-proficiency and deficiency (MSH2-dependence of cell killing) [1]: small difference between MSH2-proficiency and deficiency; change in sensitivity to MSH2 [1]: ~2 fold
COC(=O)[C@H]1[C@H]2C[C@@H]3c4[nH]c5cc(OC)ccc5c4CCN3C[C@H]2C[C@@H](OC(=O)/C=C/c2cc(OC)c(OC)c(OC)c2)[C@@H]1OC [rescinnamine] |  |  |  | induction of MSH2-dependent cell death [4]: capable of inducing cell death in an MSH2-dependent manner; overcoming resistance to cisplatin [5]: capable of overcoming resistance to cisplatin in ovarian cancer cells; hypotensive activity limiting the dose [6]: hypotensive activity of the drug prevented administration of statistically effective doses; tumor inhibition ([6]; data not shown): significant trend toward tumor inhibition
COC(=O)[C@H]1[C@H]2C[C@@H]3c4[nH]c5cc(OC)ccc5c4CCN3C[C@H]2C[C@@H](OC(=O)/C=C/c2ccc(O)c(OC)c2)[C@@H]1OC [SA-I-016] |  |  |  | difference between MSH2-proficiency and deficiency (MSH2-dependence of cell killing) [1]: small difference between MSH2-proficiency and deficiency
COC(=O)[C@H]1[C@H]2C[C@@H]3c4[nH]c5cc(OC)ccc5c4CCN3C[C@H]2C[C@@H](OC(=O)/C=C/c2cc(OC)c(O)c(OC)c2)[C@@H]1OC [SA-I-027] | 47.7 µM | 54.5 µM | induced cell killing in the micromolar range | 
COC(=O)[C@H]1[C@H]2C[C@@H]3c4[nH]c5cc(OC)ccc5c4CCN3C[C@H]2C[C@@H](OC(=O)/C=C/c2ccc(OC)c(C(=O)O)c2)[C@@H]1OC [SA-I-015] | 89.3 µM | 84.2 µM |  | 
